Experimental data: patent US4379148A, “Analgesic and anti-inflammatory composition” (priority 1981, dated 1983)
Entries after “also recorded” stand apart in the source; their conditions may differ. Read-outs that look alike come from different tables or passages of the source.

What was measured:
[1] = Analgesic Test by Phenylquinone Writhing Method; assay type: in vivo, Male ddY mice; conditions: for ED50: Mus musculus, po, read-out: ED50 (dose that reduced the number of writhes of the control group by 50%), drug alone; for combined analgesic effect with emorfazone: combination with emorfazone, in words; for ED50 dose obtained experimentally, with emorfazone 10 / theoretical additive ED50 dose, with emorfazone 10 / ED50 dose obtained experimentally, with emorfazone 20 / theoretical additive ED50 dose, with emorfazone 20: p.o.; for ED50 dose obtained experimentally, with emorfazone 10: combined with emorfazone 10 mg/kg (1/4 of its ED50); for theoretical additive ED50 dose, with emorfazone 10: combined with emorfazone 10 mg/kg; for ED50 dose obtained experimentally, with emorfazone 20: combined with emorfazone 20 mg/kg (1/2 of its ED50); for theoretical additive ED50 dose, with emorfazone 20: combined with emorfazone 20 mg/kg
Method: Male ddY mice (18-22 g) fasted for 18 hours were divided into test groups and a control group of 7 animals per group. […] The number of writhes was counted for 20 minutes after the p-phenylquinone injection.

[2] = p.o., combined with emorfazone 240 mg/kg
[3] = Anti-inflammatory Test by Whittle's Method (acetic acid, dye in peritoneal exudate); assay type: in vivo, Male ddY mice
Method: Male ddY mice (18-22 g) fasted for 18 hours were divided into test groups and a control group of 7 or 8 animals each. […] Ten minutes later, 10 ml/kg of 0.7% acetic acid dissolved in physiological saline was injected intraperitoneally into all animals and 20 minutes thereafter the animals were sacrificed. The amount of the dye in the peritoneal exudate was determined at 590 nm by using a spectrophotometer (Hitachi Instrument Co.). The ED30 was defined as the dose which decreased the amount of dye of the control group by 30%, and was determined graphically.

[4] = combination with 100 mg/kg of emorfazone; in words
Method: Female Sprague-Dawley rats (180-220 g) were used. […] On day 0 of the test, the adjuvant containing 0.6 mg of Mycobacterium butylicum (Difco) in 0.1 ml of liquid paraffin was injected into the plantar surface of the right hind paw. The test drugs were administered orally once a day for 15 days. The severity of inflammation of the 4 paws and the tail of each rat was evaluated visually at day 30 and scored by a point system. The grading for each lesion was on a 0 to 3 scale with 0 indicating absence of inflammation and 3 indicating maximum inflammation.

[5] = Analgesic Test by Randall-Selitto Method (carrageenin inflammatory pain); assay type: in vivo, Male Wistar rats; conditions: for ED50: Rattus norvegicus, po, read-out: ED50 (dose that increased the mean pain threshold of the control group by 50%), drug alone; for ED50 dose obtained experimentally, with emorfazone 4.5 / theoretical additive ED50 dose, with emorfazone 4.5 / theoretical additive ED50 dose, with emorfazone 9 / ED50 dose obtained experimentally, with emorfazone 9: p.o.; for ED50 dose obtained experimentally, with emorfazone 4.5 / theoretical additive ED50 dose, with emorfazone 4.5: combined with emorfazone 4.5 mg/kg; for theoretical additive ED50 dose, with emorfazone 9 / ED50 dose obtained experimentally, with emorfazone 9: combined with emorfazone 9 mg/kg
Method: Male Wistar rats (120-140 g) fasted for 18 hours were divided into test groups and a control group of 5 animals per group. […] The pain threshold was measured after the carrageenin injection at hourly intervals for 3 hours with an analgesy meter (Ugo Basile, Milan).

in vivo = conditions: mouse, po
[6] = p.o.; combined with emorfazone 28.8 mg/kg
[7] = p.o.; combined with emorfazone 28.8 mg/kg; theoretical additive dose
[8] = p.o.; combined with emorfazone 86 mg/kg
[9] = p.o.; combined with emorfazone 86 mg/kg; theoretical additive dose
[10] = LD50 dose obtained experimentally, with emorfazone 240, p.o., combined with emorfazone 240 mg/kg
[11] = Mus musculus, po; read-out: ED30 (dose which decreased the amount of dye of the control group by 30%), drug alone

SMILES	ED50 [1]	combined analgesic effect with emorfazone [1]	ED50 dose obtained experimentally, with emorfazone 10 [1]	theoretical additive ED50 dose, with emorfazone 10 [1]	ED50 dose obtained experimentally, with emorfazone 20 [1]	theoretical additive ED50 dose, with emorfazone 20 [1]	theoretical additive LD50 dose, with emorfazone 240 [2]	ED30 dose obtained experimentally, with emorfazone 28.8 [3, 6]	theoretical additive ED30 dose, with emorfazone 28.8 [3, 7]	ED30 dose obtained experimentally, with emorfazone 86 [3, 8]	theoretical additive ED30 dose, with emorfazone 86 [3, 9]	inhibitory effect in combination with emorfazone [4]	ED50 [5]	ED50 dose obtained experimentally, with emorfazone 4.5 [5]	theoretical additive ED50 dose, with emorfazone 4.5 [5]	theoretical additive ED50 dose, with emorfazone 9 [5]	LD50 at 168 h (in vivo)	LD50 at 168 h (in vivo; [10])	ED30 [3, 11]	ED50 dose obtained experimentally, with emorfazone 9 [5]	other results
CC(C(=O)O)c1ccc(-c2ccccc2)c(F)c1 (stereo not drawn) [Flurbiprofen]	2 mg/kg	for the most part a synergistic response	6.2 mg/kg	8 mg/kg	0.8 mg/kg	1 mg/kg	157.5 mg/kg	2.8 mg/kg	3.0 mg/kg	1.9 mg/kg	2 mg/kg	significantly potentiated	22 mg/kg	15 mg/kg	16.5 mg/kg	11 mg/kg	210 mg/kg	155 mg/kg			ED30 ([3]; Mus musculus, po, read-out: ED30 (dose which decreased the amount of dye of the control group by 30%), drug alone): 4 mg/kg
COc1ccc2cc([C@H](C)C(=O)O)ccc2c1 [Naproxen]	9 mg/kg	for the most part a synergistic response	6.2 mg/kg	6.3 mg/kg	4.1 mg/kg	4.5 mg/kg		8.5 mg/kg	9 mg/kg	5.8 mg/kg	6 mg/kg	significantly potentiated	240 mg/kg	160 mg/kg	180 mg/kg	120 mg/kg			12 mg/kg	60 mg/kg	
COc1ccc2c(c1)c(CC(=O)O)c(C)n2C(=O)c1ccc(Cl)cc1 [Indomethacin]	0.52 mg/kg	for the most part a synergistic response	0.33 mg/kg	0.39 mg/kg	0.18 mg/kg	0.26 mg/kg	8.5 mg/kg	1.6 mg/kg	1.65 mg/kg	1 mg/kg	1.1 mg/kg	significantly potentiated	6.8 mg/kg	0.8 mg/kg	5.1 mg/kg	3.4 mg/kg	11.3 mg/kg	13 mg/kg	2.2 mg/kg	0.3 mg/kg	
CCCCC1C(=O)N(c2ccccc2)N(c2ccccc2)C1=O [Phenylbutazone]	66 mg/kg	potentiated by the emorfazone; also recorded: for the most part a synergistic response	32 mg/kg	49.5 mg/kg	16 mg/kg	33 mg/kg	427.5 mg/kg	130 mg/kg	131.3 mg/kg	86 mg/kg	87.5 mg/kg	not essentially affected	125 mg/kg	22 mg/kg	93.8 mg/kg	62.5 mg/kg			175 mg/kg	19 mg/kg	
CC(C)Cc1ccc(C(C)C(=O)O)cc1 (stereo not drawn) [Ibuprofen]	13.5 mg/kg	for the most part a synergistic response	8 mg/kg	10.1 mg/kg	3 mg/kg	6.8 mg/kg	862.5 mg/kg	56 mg/kg	57 mg/kg	37 mg/kg	38 mg/kg	significantly potentiated	120 mg/kg	10 mg/kg	90 mg/kg	60 mg/kg			76 mg/kg	8 mg/kg	
CC(C(=O)O)c1cccc(C(=O)c2ccccc2)c1 (stereo not drawn) [Ketoprofen]	0.5 mg/kg	for the most part a synergistic response	0.37 mg/kg	0.38 mg/kg	0.23 mg/kg	0.25 mg/kg		2.2 mg/kg	2.4 mg/kg	1.3 mg/kg	1.6 mg/kg	significantly potentiated	6 mg/kg	3 mg/kg	4.5 mg/kg	3 mg/kg	305 mg/kg	380 mg/kg	3.2 mg/kg	1 mg/kg	
Cc1cccc(Nc2ccccc2C(=O)O)c1C [Mefenamic acid]	36 mg/kg	for the most part a synergistic response	21 mg/kg	27 mg/kg	13 mg/kg	18 mg/kg	892.5 mg/kg	60 mg/kg	61.5 mg/kg	41 mg/kg	41 mg/kg	significantly potentiated	120 mg/kg	58 mg/kg	90 mg/kg	60 mg/kg			82 mg/kg	20 mg/kg	
